Consider 41 compounds from the Deep4Chem optical property database.

The series in a line: solvent given as SMILES.

For `CC1(C)c2ccccc2N(c2ccc3c(c2)S(=O)(=O)c2cc(N4c5ccccc5C(C)(C)c5ccccc54)ccc2C3(C)C)c2ccccc21`, the emission maximum is, setting by setting: (in Cc1ccccc1) 466.12 nm; (in ClCCl) 506 nm.
On to `COC(=O)c1c(-c2cc3ccccc3oc2=O)nn(-c2cccc(F)c2)c1C(=O)OC`, for which the emission maximum (in ClCCl) is given as 402 nm.
`O=Cc1ccc(-c2cccc(-c3nc4ccccc4s3)c2O)s1` yielded an emission maximum (in CCO) of 576 nm, an emission maximum (in ClCCl) of 566 nm and an emission maximum (in O) of 595 nm.
Under “in ClCCl”, `Brc1cc2nc3cc4c5c(cccc5c3nc2cc1Br)C(c1ccccc1)=C(c1ccccc1)O4` registered an emission maximum of 580 nm.
Turning to `Cc1ccc(C2=C3C=CC(c4ccccc4)=[N+]3[B-](F)(F)n3c(Cl)ccc32)cc1`, the emission maximum reads like this: (in C1CCCCC1) 553 nm; (in C1CCOC1) 555 nm; (in C1COCCO1) 554 nm; (in CCOC(C)=O) 551 nm; (in CO) 549 nm; (in Cc1ccccc1) 558 nm. Further, the emission maximum (in ClC(Cl)Cl) was 555 nm.
As to `CC(C)[Si](C#Cc1c2ccccc2c(C#C[Si](C(C)C)(C(C)C)C(C)C)c2nc3cc4c(cc3nc12)C1c2ccccc2C4c2ccccc21)(C(C)C)C(C)C`, the emission maximum is reported as 568 nm (in CCCCCC) and 593 nm (in ClCCl).
As to `CCN(CC)c1ccc2c(c1)oc(=O)c1cnc3c(cnn3-c3ccccc3)c12`, the emission maximum (in ClCCl) was 441 nm.
As to `CN1C(=CC2=C([S-])C(=Cc3sc4ccccc4[n+]3C)C2=O)C(C)(C)c2ccccc21`, the emission maximum (in ClC(Cl)Cl) amounted to 676 nm.
Turning to `CCOC(=O)CN(CC(=O)OCC)c1ccc(-c2cc(-c3ccncc3)nc(-c3ccncc3)c2)cc1`, the emission maximum (in CC#N) is recorded as 482 nm; the emission maximum (in CCOC(C)=O) came out at 438 nm; the emission maximum (in CN(C)C=O) came to 490 nm; the emission maximum (in CS(C)=O) is reported as 496 nm; the emission maximum (in c1ccccc1) came out at 412 nm.
For the setting “in ClCCl”, `CCCCC(CC)Cn1c2cc(C#N)ccc2c2ccc(C#Cc3ccc4ccc5c(C#Cc6ccc7c8ccc(C#N)cc8n(CC(CC)CCCC)c7c6)ccc6ccc3c4c65)cc21` (centres undefined) returned an emission maximum of 400 nm.
Consider `CCCCC(CC)COc1ccc2nc(-c3ccc(-c4ccc(OC)cc4)s3)sc2c1` (centres undefined), for which the emission maximum (in ClCCl) came out at 434 nm.
The same measure, in the same setting: the figure for `CCCCCCOc1cc(/C=C/c2cc(OCCCCCC)c(/C=C/c3cc(OCCCCCC)c(C=O)cc3OCCCCCC)cc2OCCCCCC)c(OCCCCCC)cc1C=O` is 521 nm.
Turning to `COc1ccc(C(=O)/C=C/c2ccc(N(C)C)cc2)cc1OC`, the emission maximum by setting is: (in C1CCOC1) 500 nm; (in CC#N) 525 nm; (in CC(=O)O) 513 nm; (in CC(C)=O) 511 nm; (in CCO) 533 nm; (in CN(C)C=O) 523 nm. The emission maximum by setting is: (in CO) 535 nm; (in Cc1ccccc1) 468 nm; (in ClC(Cl)Cl) 507 nm; (in c1ccccc1) 470 nm.
Turning to `O=C(/C=C/c1ccc(O)c(O)c1)O[C@H](Cc1ccc(O)c(O)c1)C(=O)O`, the emission maximum is, setting by setting: (in C1CCOC1) 397 nm; (in CC#N) 413 nm; (in CCCC#N) 406 nm; (in CCO) 417 nm; (in CN(C)C=O) 420 nm; (in CO) 432 nm. In addition, the emission maximum was 432 nm (in CS(C)=O), 396 nm (in ClCCl) and 444 nm (in O).
With `Cc1ccc(N(c2ccc(C)cc2)c2ccc3c4cccc5c(N(c6ccc(C)cc6)c6ccc(C)cc6)ccc(c6cccc2c63)c54)cc1`, the emission maximum reads like this: (in C1CCCCC1) 546 nm; (in C1CCOC1) 551 nm; (in CC#N) 574 nm; (in Cc1ccccc1) 548 nm; (in ClCCl) 568 nm.
`Cc1cc(C)n2c1C=C1c3ccccc3C(c3cccn3C)=[N+]1[B-]2(F)F`: the emission maximum reads like this: (in C1CCOC1) 608 nm; (in CC#N) 606 nm; (in CCCCCC) 605 nm; (in CO) 605 nm; (in Cc1ccccc1) 613 nm; (in ClCCl) 611 nm.
`F[B-]1(F)n2c(c3cc4ccccc4cc3c2-c2ccccc2)C=C2c3cc4ccccc4cc3C(c3ccccc3)=[N+]21`: the emission maximum is 782 nm (in C1CCOC1), 788 nm (in CN(C)C=O), 785 nm (in ClCCl) and 785 nm (in c1ccccc1).
As to `CCOC(=O)c1c(-c2cc3c(ccc4ccccc43)oc2=O)nn(-c2cccc(Cl)c2)c1C(=O)OCC`, the emission maximum (in ClCCl) amounted to 442 nm.
`COc1ccc(C#Cc2ccccc2C#Cc2ccc(OC)cc2)cc1`: the emission maximum (in CC#N) is 380 nm.
Consider `c1ccc2cc(-c3c4ccccc4c(-c4ccc(-n5c6ccccc6c6ccccc65)cc4)c4ccccc34)ccc2c1`, for which the emission maximum (in ClCCl) worked out at 427 nm.
Consider `c1ccc2nc3cccc(-c4ccc(-n5c6ccccc6c6ccccc65)cc4)c3cc2c1`, for which the emission maximum worked out at 466 nm (in C1CCOC1); 527 nm (in CC#N); 497 nm (in CC(C)=O); 444 nm (in CC(C)OC(C)C); 434 nm (in CCCCCC); 442 nm (in CCCCOCCCC). For the same compound, the emission maximum was 460 nm (in CCOC(C)=O), 443 nm (in CCOCC) and 486 nm (in ClCCl).
For `CCCCn1c(-c2ccc(-c3nnc(-c4ccc5ccccc5c4)o3)cc2)nc(-c2ccccc2)c1-c1ccccc1`, under “in ClCCl”, the emission maximum amounted to 445 nm.
In the case of `CC(C)[Si]1(C(C)C)c2cc(N(C)C)ccc2-c2ccc(C(F)(F)F)cc21`, the emission maximum is recorded as 402 nm (in C1CCCCC1); 440 nm (in CC#N); 422 nm (in CCO); 410 nm (in CCOCC); 451 nm (in CS(C)=O); 423 nm (in ClCCl). The same compound returned an emission maximum (in c1ccccc1) of 410 nm.
Take `CN(C)c1ccc(/C=C/C(=O)O)cc1`: the emission maximum by setting is: (in C1CCCCC1) 399 nm; (in C1CCOC1) 418 nm; (in C1COCCO1) 414 nm; (in CC#N) 445 nm; (in CCCCO) 439 nm; (in CCCO) 441 nm. In addition, the emission maximum by setting is: (in CCOC(C)=O) 421 nm; (in CO) 453 nm; (in Cc1ccccc1) 413 nm; (in O) 453 nm; (in c1ccccc1) 416 nm.
`CCCC1(CCC)c2cc(-c3ccc(C(C)(C)C)cc3)ccc2-c2ccc(-c3ccc4c(c3)C(CCC)(CCC)c3cc(-c5ccc(C(C)(C)C)cc5)ccc3-4)cc21` returned an emission maximum (in C1CCCCC1) of 395 nm.
`COc1cc2c(cc1-c1ccc(Cl)cc1)Cc1c3c(c4c(c1-2)-c1cc(OC)c(-c2ccc(Cl)cc2)cc1C4)C(=O)N(CCC(C)C)C3=O` yielded an emission maximum (in C1CCOC1) of 466 nm.
Under “in CCO”, `O=C(O)CCNc1cccc2ccccc12` came in with an emission maximum of 417 nm.
`COc1ccc2nc(-c3ccccc3)c(=O)oc2c1` came in with an emission maximum (in c1ccccc1) of 448 nm.
For `Cc1cccc(C)c1Nc1ccc(/C=C/c2ccccc2)cc1`, the emission maximum turned out to be 424 nm (in CC#N) and 375 nm (in CCCCCC).
As to `C[Si]1(c2ccccc2)C(c2ccc(-n3c4ccccc4c4ccccc43)cc2)=C(c2ccccc2)C(c2ccccc2)=C1c1ccc(-n2c3ccccc3c3ccccc32)cc1`, under “in C1CCOC1”, the emission maximum was 520 nm.
Take `CCN(CC)c1ccc(C2=C3C(C)=CC(/C=C/c4ccc(OCCCN=[N+]=[N-])cc4)=[N+]3[B-](F)(F)n3c(C)cc(C)c32)cc1`: the emission maximum (in CO) came out at 587 nm.
On to `CC1(C)c2ccccc2-c2cc3c(cc21)c1ccccc1n3-c1cccnc1`, for which the emission maximum (in ClCCl) was 373 nm.
Regarding `CCC1(CC)c2ccccc2-c2c1c1c(c3c2C(CC)(CC)c2cc(-c4cccs4)ccc2-3)C(CC)(CC)c2cc(N(c3ccccc3)c3ccccc3)ccc2-1`, under “in C1CCOC1”, the emission maximum amounted to 422 nm.
As to `COc1ccc(C2=[N+]3C(=Nc4c(-c5ccccc5)c(Br)c(-c5ccc(OC)cc5)n4[B-]3(F)F)C(c3ccccc3)=C2Br)cc1`, the emission maximum turned out to be 714 nm (in ClC(Cl)Cl) and 714 nm (in ClCCl).
Turning to `CCN(CC)c1ccc(-c2ccc(-c3nc(N4CCOCC4)c4ccccc4n3)s2)cc1`, the emission maximum runs as follows: (in CC#N) 544 nm; (in Cc1ccccc1) 476 nm.
`N#C/C(=C\c1ccc(C#N)cc1)c1nc(-c2ccccc2)cs1` registered an emission maximum (in CC#N) of 501 nm; an emission maximum (in CCO) of 500 nm; an emission maximum (in CN(C)C=O) of 507 nm; an emission maximum (in Cc1ccccc1) of 472 nm; an emission maximum (in ClCCl) of 490 nm.
With `c1ccc(N2c3ccc4ccccc4c3-c3c4ccccc4nc[n+]3[B-]2(c2ccccc2)c2ccccc2)cc1`, the emission maximum was determined as 642 nm (in C1CCC2CCCCC2C1); 640 nm (in C1CCCCC1); 665 nm (in C1CCOC1); 677 nm (in CC#N); 675 nm (in CC(C)=O); 641 nm (in CCCCCC). This compound yielded an emission maximum (in CCOC(C)=O) of 665 nm, an emission maximum (in CN(C)C=O) of 680 nm, an emission maximum (in Cc1ccccc1) of 654 nm and an emission maximum (in ClC(Cl)Cl) of 676 nm.
On to `COc1cc2c(cc1-c1ccc(N(c3ccccc3)c3ccccc3)cc1)Cc1c3c(c4c(c1-2)-c1cc(OC)c(-c2ccc(N(c5ccccc5)c5ccccc5)cc2)cc1C4)C(=O)N(CCC(C)C)C3=O`, for which the emission maximum (in C1CCOC1) worked out at 563 nm.
As for `CCCCC(CC)COc1ccc2nc(-c3ccc(-c4cccs4)s3)sc2c1` (centres undefined), the emission maximum (in ClCCl) was 438 nm.
Turning to `COc1cc(C#Cc2ccccc2)c(C#Cc2ccccc2)cc1OC`, the emission maximum (in CC#N) amounted to 380 nm.
`CCCCCCCCCCCCN1C(=O)c2c(c3ccc4cc(-c5ccccc5)c(OC)cc4c3c3c2ccc2cc(-c4ccccc4)c(OC)cc23)C1=O` returned an emission maximum (in ClCCl) of 526 nm.
